For experiment [1], the system named is lamprey GnRH receptor. In words: Inositol phosphate (IP) assay in COS7 cells transiently transfected with the lamprey GnRH receptor. The experiment is classed as cell-based, sea lamprey, Petromyzon marinus. Particulars: for IP response on stimulation of transiently transfected COS7 cells: in words; for LogEC50, IP accumulation: mean±SEM, n=3, COS7 cells transiently transfected with lamprey GnRH receptor, 10^-6M to 10-11 M, 1 hour at 37° C.; for IP accumulation in cells transfected with blank pcDNA3.1 vector: negative control cells without receptor, data not shown. As for the experimental part: (§1) The coding region of the lamprey GnRH-R was inserted into the pcDNA3.1 HisTOPO mammalian expression vector (Carlsbad, Calif.) (INVITROGEN, Carlsbad, Calif.). COS7 cells were cultured in 10% fetal bovine serum (FBS) in Dulbeccos Modified Eagles Medium (DMEM) (INVITROGEN), and were maintained at 37° C. in 5% CO 2. The day before transfection, 5×10^5 cells were seeded in 60 mm culture plates. Transfection was performed using 5 μg of vector and 15 μL of Lipofectamine (INVITROGEN) in 2.4 mL total volume in Opti-MEM-I (Invitrogen) and an incubation time of 5 hours at 37° C. in 5% CO 2, after which, 2.5 mL of 20% FBS in DMEM was added and cultures were grown overnight.
(§2) Twenty-four hours after transfection (day 2), cells were trypsinized and 96-well plates were seeded with 5×10^4 cells/well, and cultures were grown overnight. Day 3, cells were stimulated with either control (ID buffer −1.0 mM 3-isobutyl-1-methylxanthine in DMEM) or varying concentrations (10^-10M to 10^-4M) of either lamprey GnRH-I or lamprey GnRH-III (in ID buffer). cAMP assays were performed using the BIOTRAK Enzymeimmunoassay system (AMERSHAM), per the manufacturers instructions. Treatments were performed in triplicate in three independent experiments, while cells transfected with blank vector were used as negative controls. Analyses were performed using GRAPHPAD (Prism, San Diego, Calif.). Inositol Phosphate Assay The inositol phosphate (IP) stimulation and extraction protocol used was adapted from previous studies. Briefly, 24 hours after transfection, cells were trypsinized, and seeded in 12-well plates at approximately 1.5×10^5 cells/well. At hour 72 cells were washed in PBS and incubated in 1 mL of 2% dialyzed fetal bovine serum and 2 μCi/mL myo […] inositol (AMERSHAM) in medium 199 (INVITROGEN). At hour 96 cells were washed 2 times with IP buffer (1×HBSS, 20 mM HEPES, 20 mM LiCL), and were pre-incubated in IP buffer for 15 minutes at 37° C., followed by stimulation with concentrations of lamprey GnRH-I or lamprey GnRH III, in IP buffer, ranging from 10^-6M to 10-11 M, for 1 hour at 37° C. with gentle shaking. The reactions were stopped with the addition of 0.2 mL of pre-chilled 20% perchloric acid, and the plates were placed on ice for 30 minutes. The wells were scraped and the extracts were transferred to sterile 1.5 mL tubes and neutralized with 5M KOH, followed by a 1 hour incubation at 4° C. Tubes were centrifuged at 5,000 rpm at 4° C. for 15 minutes, and 1.2 mL of supernatant was transferred to a new sterile 1.5 mL tube. IPs (IP, IP2 and IP3) were isolated by ion exchange chromatography using AGlX8-200 resin (Bio-Rad) in formate form. IPs were eluted with 1 M ammonium formate/0.1 M formic acid, samples were counted by liquid scintillation and data were analyzed using Prism (GRAPHPAD). Treatments were performed in triplicate in three independent experiments, and cells transfected with blank vector and non-transfected cells were used as negative controls.

In experiment [2] the test system is lamprey GnRH receptor. In words: cAMP assay in COS7 cells transiently transfected with the lamprey GnRH receptor. The format is cell-based, sea lamprey, Petromyzon marinus. The note with it: for cAMP response on stimulation of transiently transfected COS7 cells: in words; for LogEC50, cAMP accumulation: mean±SEM, n=3, COS7 cells transiently transfected with lamprey GnRH receptor, 10^-10M to 10^-4M; for cAMP accumulation in cells transfected with blank pcDNA3.1 vector: negative control cells without receptor, data not shown. As for the experimental part:
as §1, §2

For experiment [3], the system named is incubated hemipituitaries of male rats. Particulars: cited from earlier work.
For experiment [4], the system named is lamprey GnRH receptor transcript. In words: Transcriptional regulation of the GnRH receptor transcript by lamprey GnRH-III (RT-PCR, densitometry normalized to β-actin). The format is in vivo, adult male lamprey. Here is the method:
Forty adult male lamprey's were injected intraperitoneally, twenty (20) with lamprey GnRH-III (200 μL of 0.45 μg/μL lamprey GnRH-III in 0.6% saline) and twenty (20) with control (200 μL of 0.6% saline). Ten (10) fish from each treatment group were sacrificed 24 hours after injection, and brains, pituitaries, kidneys, and testes were dissected and frozen in liquid nitrogen. Forty-eight hours after the first injection, the remaining animals were injected a second time with the same treatment they originally received. Twenty-four hours after the second injection, all remaining animals were sacrificed and tissues dissected and snap frozen. Total RNA was isolated from all tissues using Tri-Reagent (Molecular Research Center, Inc.), treated with RQ1 DNase (PROMEGA), and used as template for RT-PCR with the AccessQuick RT-PCR system (PROMEGA) using the same conditions as above, except 50 ng of template was used per reaction. Reactions were electrophoresed and visualized in 2% agarose gels. Parallel reactions were performed using primers to β-actin as a positive control. Receptor bands were normalized to β-actin and densitometry was performed using a Molecular Imager FX (BioRad, Hercules, Calif.) to determine effects of lamprey […] injection.

Where [5] appears, read: after both one and two injections, densitometry normalized to β-actin, N=10.
The mark [6] stands for this setting: relative to lamprey GnRH-I, one statement for both signaling systems.

Ends that are not written are not given here.

Chain of lamprey GnRH receptor (as listed by the source): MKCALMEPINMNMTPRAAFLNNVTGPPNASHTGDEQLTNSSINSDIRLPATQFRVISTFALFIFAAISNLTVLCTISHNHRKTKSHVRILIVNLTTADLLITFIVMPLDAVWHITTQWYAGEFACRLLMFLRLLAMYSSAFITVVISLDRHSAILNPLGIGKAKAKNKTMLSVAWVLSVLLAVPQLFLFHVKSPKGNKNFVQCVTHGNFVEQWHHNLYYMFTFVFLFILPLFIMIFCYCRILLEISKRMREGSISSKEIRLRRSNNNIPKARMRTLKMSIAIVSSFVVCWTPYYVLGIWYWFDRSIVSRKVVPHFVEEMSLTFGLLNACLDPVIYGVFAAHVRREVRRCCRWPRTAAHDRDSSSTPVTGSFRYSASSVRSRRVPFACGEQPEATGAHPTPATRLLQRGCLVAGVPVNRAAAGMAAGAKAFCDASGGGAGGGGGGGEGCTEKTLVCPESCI

As to “lamprey GnRH-I: one of two hypothalamic GnRH isoforms (decapeptide) identified in the brain of the lamprey (QHYSLEWKPG; ends and bridges not checked)”, in the experiment on lamprey GnRH receptor [1], the “IP response on stimulation of transiently transfected COS7 cells” value was “dose dependant responses”; the “LogEC50, IP accumulation” value is −8.10±0.150; the “IP accumulation in cells transfected with blank pcDNA3.1 vector” value is reported as “no response”. In addition, in the experiment with lamprey GnRH receptor [2], the “cAMP response on stimulation of transiently transfected COS7 cells” value is reported as “dose dependant responses”; the “LogEC50, cAMP accumulation” value is −6.57±0.150; the “cAMP accumulation in cells transfected with blank pcDNA3.1 vector” value is “no response”. For the same substance, in experiment [3], the FSH-releasing action entry is on record as “little activity” and the LH-releasing action result is “little activity”.
Take “lamprey GnRH-III: hypothalamic lamprey GnRH isoform (decapeptide), Tyr instead of Trp in the third position”: in experiment [4] (setting [5]), the “receptor transcript regulation in pituitary compared to control” value is “up-regulated” and the “receptor transcript regulation in testes compared to control” value is given as “down-regulated”. Besides, the “receptor transcript bands in pituitary versus control” value in experiment [4] (after one injection, intraperitoneal, 24 hours after injection) is recorded as “twice as bright as control”. Besides, in experiment [4] (after one injection, intraperitoneal, 24 hours after injection, control testes high levels), the “GnRH receptor transcript level in testes versus control” value is reported as “barely detectable levels”. Also, the “receptor transcript expression in brain” value in experiment [4] (after one or two injections) was “not induced”. Moreover, the “effects on receptor transcript in pituitary and testes after two injections, relative to one injection” value in experiment [4] (two injections 48 hours apart, 24 hours after second injection) was “considerably lesser degree”. In addition, in the experiment on lamprey GnRH receptor [1], the “IP response on stimulation of transiently transfected COS7 cells” value is “dose dependant responses”; the “LogEC50, IP accumulation” value is given as −9.37±0.243; the “IP accumulation in cells transfected with blank pcDNA3.1 vector” value is reported as “no response”. In the experiment with lamprey GnRH receptor [1] (setting [6]), the “logEC50 fold lower than that of lamprey GnRH-I, IP system” value is 40-50 fold. Further, in the experiment with lamprey GnRH receptor [2], the “cAMP response on stimulation of transiently transfected COS7 cells” value is “dose dependant responses”; the “LogEC50, cAMP accumulation” value is given as −8.29±0.090; the “cAMP accumulation in cells transfected with blank pcDNA3.1 vector” value is listed as “no response”. In addition, the “logEC50 fold lower than that of lamprey GnRH-I, cAMP system” value in the experiment with lamprey GnRH receptor [2] (setting [6]) was 40-50 fold. In addition, the FSH-releasing action entry in experiment [3] is recorded as “potent, dose-related”.
